Assay results taken from patent US20190119282A1, “IMIDAZOPYRIDAZINES USEFUL AS INHIBITORS OF THE PAR-2 SIGNALING PATHWAY” (Vertex Pharmaceuticals Incorporated, priority 2013, published 2019).

What was measured:
[1] = target: T1, PAR2 (HT-29 cells, SLIGKV activation) (Homo sapiens, UniProt P55085); test: Ca FLIPR TETRA assay, ANTAGONIST mode, stimulation with 8 μM SLIGKV; assay type: cell-based; conditions: for IC50: HT-29 cells
T1 construct: host or cells: HT-29 cells
T1 sequence (P55085 26-397): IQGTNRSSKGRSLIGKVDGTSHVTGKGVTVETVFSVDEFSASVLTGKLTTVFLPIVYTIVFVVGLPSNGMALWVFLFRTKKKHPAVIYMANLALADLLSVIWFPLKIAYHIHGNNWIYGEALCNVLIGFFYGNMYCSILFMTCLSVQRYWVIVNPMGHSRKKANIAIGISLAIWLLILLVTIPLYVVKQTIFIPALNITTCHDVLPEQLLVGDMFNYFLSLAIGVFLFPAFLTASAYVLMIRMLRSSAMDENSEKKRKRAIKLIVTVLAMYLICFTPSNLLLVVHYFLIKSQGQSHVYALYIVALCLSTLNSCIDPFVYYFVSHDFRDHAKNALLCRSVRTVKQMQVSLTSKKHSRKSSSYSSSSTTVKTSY
Experimental: (§1) Example 60: Protocol for Testing PAR2 Compounds in ANTAGONIST Mode Using the Ca FLIPR^TETRA Assay (384 Well)
(§2) 23000 HT-29 cells (ATCC# HTB-38) were plated in 384-well black, transparent-flat bottom plates and incubated in 25 uL of 1% FBS/McCoy's media ON at 37° C. under an atmosphere of 5% CO2. The following day, 25 uL FLIPR calcium 5 Molecular Devices assay reagent (Cat: R-8186) was added. Plates were incubated at 37° C. and r. t. for 45 min and 15 min, respectively. Compounds dilutions were prepared in 100% DMSO using a Biomek FX and diluted 20-fold in HBSS and then 5.5 uL was added directly to the cells by the FLIPR^TETRA (10× dilution) using FLIPR Tetra Pipette tips, black, non-sterile, 384 Molecular Devices (Cat: 9000-0764).
(§3) A first read was performed to determine whether the test compounds on their own can activate Ca2+ responses.
(§4) The cells were incubated with the compounds for 30 min at r. t. and then read in ANTAGONIST mode in the same plate by stimulating with 6.2 uL of a fixed concentration of the activator: final concentrations: 8 μM SLIGKV, 1 U/mL Thrombin, 3.1 U/mL trypsin, or 0.6 μM UTP.

[2] = target: T2, PAR2 (HT-29 cells, trypsin activation) (Homo sapiens, UniProt P55085); test: Ca FLIPR TETRA assay, ANTAGONIST mode, stimulation with 3.1 U/mL trypsin; assay type: cell-based; conditions: for Trypsin % @ 50 μM: reported prior-art compounds
T2 construct: host or cells: HT-29 cells
T2 sequence (P55085 26-397): T1 sequence (P55085 26-397)
Experimental: as §1, §2, §3, §4

[3] = test system: Thrombin-stimulated Ca2+ response in HT-29 cells; test: Ca FLIPR TETRA assay, ANTAGONIST mode, stimulation with 1 U/mL Thrombin; assay type: cell-based, human; conditions: HT-29 cells, stimulation with 1 U/mL Thrombin
Experimental: as §1, §2, §3, §4

[4] = test system: UTP-stimulated Ca2+ response in HT-29 cells; test: Ca FLIPR TETRA assay, ANTAGONIST mode, stimulation with 0.6 μM UTP; assay type: cell-based, human; conditions: for IC50: Homo sapiens, HT-29 cells, stimulation with 0.6 μM UTP
Experimental: as §1, §2, §3, §4

[5] = Table 6, HT-29 cells, 3.1 U/mL trypsin
[6] = Table 8, reported compounds of WO2005/030773, JP2003286171, JP2004170323
[7] = Table 8, reported compounds of WO2005/030773, JP2003286171, JP2004170323, HT-29 cells
[8] = antagonist mode, stimulation with 8 μM SLIGKV
[9] = HT-29 cells, antagonist mode, stimulation with 3.1 U/mL trypsin

O=C(c1cn2nc(-c3ccc(F)cc3)cc(C(F)(F)F)c2n1)N1CCN(Cc2ccccn2)CC1 [Compound I-581]
IC50 ([1]; Table 6, 8 μM SLIGKV): 50 µM
IC50 [2, 5]: 46 µM

Cc1cc(-c2ccc(F)cc2)nn2cc(C(=O)N3CCC4(COC4)C3)nc12 [Compound I-585]
IC50 ([1]; Table 6, 8 μM SLIGKV): 27 µM
IC50 [2, 5]: 24 µM

O=C(c1cn2nc(-c3ccc(F)cc3)cc(C(F)(F)F)c2n1)N1CCCCC1c1nccs1 (stereo not shown) [Compound I-73]
IC50 ([1]; stimulation with 8 μM SLIGKV): 0.74 µM
IC50 ([2]; HT-29 cells, stimulation with 3.1 U/mL trypsin): 0.92 µM
IC50 ([3]; Homo sapiens): 1.7 µM

CC(C)c1cc(-c2ccc(F)cc2)nn2cc(C(=O)N3CCCCC34COC4)nc12 [Compound I-587]
IC50 ([1]; Table 6, 8 μM SLIGKV): 25 µM
IC50 [2, 5]: 19 µM

CCOC(=O)C1CCN(C(=O)c2cc3nc(-c4ccccc4)cc(C(F)(F)F)n3n2)CC1 [Compound P-603, reference compound]
IC50 [1, 6]: 0.14 µM
IC50 [2, 7]: 17 µM

C[C@H]1CN(C(=O)c2cn3nc(-c4ccc(F)cc4)c(C(F)(F)F)cc3n2)CCN1C(=O)OCc1ccccc1 [Compound I-580]
IC50 ([1]; Table 6, 8 μM SLIGKV): 23 µM
Trypsin % @ 50 ([2]; Table 6, @ 50 (μM), HT-29 cells, 3.1 U/mL trypsin): 48% @ 50

O=C(c1nn2c(C(F)(F)F)cc(-c3ccccc3)nc2c1Br)N1CCC(c2ccc(F)cc2)C1 (stereo not shown) [Compound P-608, reference compound]
IC50 [1, 6]: 23 µM
IC50 [2, 7]: 33 µM

CCOC(=O)C1CCN(C(=O)c2cc3nc(-c4ccc(Cl)cc4)cc(C(F)(F)F)n3n2)CC1 [Compound P-605, reference compound]
IC50 [1, 6]: 0.073 µM
Trypsin % @ 50 μM ([2]; Table 8): 50% @ 50 μM

O=C(c1cn2nc(-c3ccc(F)cc3)cc(C(F)(F)F)c2n1)N1CCCCCC1 [Compound I-7, Azepan-1-yl-[6-(4-fluorophenyl)-8-(trifluoromethyl)imidazo[1,2-b]pyridazine-2-yl]methanone]
IC50 ([1]; stimulation with 8 μM SLIGKV): 0.089 µM
IC50 ([3]; Homo sapiens): > 50 µM
IC50 [4]: > 50 µM

CC(C)(C)OC(=O)NC1CCN(C(=O)c2cn3nc(-c4ccc(F)cc4)cc(C(F)(F)F)c3n2)CC1 [Compound I-74]
IC50 ([1]; stimulation with 8 μM SLIGKV): 0.48 µM
IC50 ([3]; Homo sapiens): > 50 µM
UTP % @ concentration ([4]; @ 50 (μM)): 62% @ 50

CC1CCCCN1C(=O)c1cc2nc(-c3ccccc3)cc(C(F)(F)F)n2n1 (stereo not shown) [Compound P-595, reference compound]
IC50 [1, 6]: 1.73 µM
IC50 [2, 7]: 19.2 µM

O=C(c1cc2nc(-c3ccc(Cl)cc3)cc(C(F)(F)F)n2n1)N1CCCCCC1 [Compound P-599, reference compound]
IC50 [1, 6]: 9.81 µM
IC50 [2, 7]: > 50 µM

O=C(c1ccccc1)N1CCN(C(=O)c2cc3nc(-c4ccc(Cl)cc4)cc(C(F)(F)F)n3n2)CC1 [Compound P-606, reference compound]
IC50 [1, 6]: 0.37 µM
IC50 [2, 7]: > 50 µM

CN(CCO)C(=O)c1cc2nc(-c3ccccc3)cc(C(F)(F)F)n2n1 [Compound P-602, reference compound]
IC50 [1, 6]: 31 µM
IC50 [2, 7]: > 50 µM

O=C(c1ccccc1)N1CCN(C(=O)c2cc3nc(-c4ccccc4)cc(C(F)(F)F)n3n2)CC1 [Compound P-596, reference compound]
IC50 [1, 6]: 10.8 µM
IC50 [2, 7]: > 50 µM

O=C(c1cn2nc(-c3ccc(F)cc3)cc(C(F)(F)F)c2n1)N1CCN(CCn2ccnc2)CC1 [Compound I-583]
IC50 ([1]; Table 6, 8 μM SLIGKV): 23 µM
IC50 [2, 5]: > 50 µM

CCOC(=O)C1CCCCN1C(=O)c1cc2nc(-c3ccc(Cl)cc3)cc(C(F)(F)F)n2n1 (stereo not shown) [Compound P-592, reference compound]
IC50 [1, 6]: 0.057 µM
IC50 [2, 7]: 0.13 µM

O=C(c1cc2nc(-c3ccccc3)cc(C(F)(F)F)n2n1)N1CCC(O)CC1 [Compound P-609, reference compound]
IC50 [1, 6]: 2.8 µM
IC50 [2, 7]: 14 µM

C[C@H]1CN(C(=O)c2cn3nc(-c4ccc(F)cc4)cc(C(F)(F)F)c3n2)CCN1C(=O)c1cc(-c2ccccc2)n[nH]1 [Compound I-87]
IC50 ([1]; stimulation with 8 μM SLIGKV): 0.021 µM
IC50 ([3]; Homo sapiens): > 50 µM
IC50 [4]: > 50 µM

CC(C)c1cc(Cl)nn2cc(C(=O)N3CCN(C(=O)C4(O)CCC4)CC3(C)C)nc12 [Compound I-589]
IC50 ([1]; Table 6, 8 μM SLIGKV): 27 µM
IC50 [2, 5]: > 50 µM

CC1CCCCN1C(=O)c1cc2nc(-c3ccc(Cl)cc3)cc(C(F)(F)F)n2n1 (stereo not shown) [Compound P-598, reference compound]
IC50 [1, 6]: > 50 µM
IC50 [2, 7]: > 50 µM

CN(C(=O)OC(C)(C)C)C1CCN(C(=O)c2cn3nc(-c4ccc(F)cc4)cc(C(F)(F)F)c3n2)CC1 [Compound I-77]
IC50 ([1]; stimulation with 8 μM SLIGKV): 0.68 µM
IC50 ([3]; Homo sapiens): > 50 µM
IC50 [4]: > 50 µM

CCOC1CCN(C(=O)c2cn3nc(-c4ccc(F)cc4)cc(C(F)(F)F)c3n2)CC1 [Compound I-48]
SLIGKV % @ concentration ([1]; @ 1.9 (μM)): 51% @ 1.9
IC50 ([3]; Homo sapiens): > 50 µM
IC50 [4]: > 50 µM

CN(CCO)C(=O)c1cc2nc(-c3ccc(Cl)cc3)cc(C(F)(F)F)n2n1 [Compound P-597, reference compound]
IC50 [1, 6]: 17.4 µM
IC50 [2, 7]: 27 µM

COC(=O)C1CC(C(=O)N2CCN(C(=O)c3cn4nc(-c5ccc(F)cc5)cc(C(C)(C)C)c4n3)C(C)(C)C2)C1 (stereo not shown) [Compound I-538]
IC50 [1, 8]: 0.0008 µM
IC50 [2, 9]: 0.0009 µM
IC50 ([3]; antagonist mode): > 1 µM

CCOC(=O)C1CCCCN1C(=O)c1cc2nc(-c3ccccc3)cc(C(F)(F)F)n2n1 (stereo not shown) [Compound P-604, reference compound]
IC50 [1, 6]: 0.64 µM
IC50 [2, 7]: 3.85 µM

O=C(c1cc2nc(-c3ccc(Cl)cc3)cc(C(F)(F)F)n2n1)N1CCCCC1 [Compound P-593, reference compound]
SLIGKV % @ 50 μM ([1]; Table 8, @ 50 μM, reported prior-art compounds): 67% @ 50 μM
IC50 [2, 7]: > 50 µM

O=C(c1cc2nc(-c3ccccc3)cc(C(F)(F)F)n2n1)N1CCC(c2ccc(F)cc2)C1 (stereo not shown) [Compound P-607, reference compound]
IC50 [1, 6]: > 50 µM
IC50 [2, 7]: > 50 µM

O=C(c1cc2nc(-c3ccccc3)cc(C(F)(F)F)n2n1)N1CCCCC1 [Compound P-594, reference compound]
IC50 [1, 6]: 4.67 µM
IC50 [2, 7]: 28 µM

O=C(O)C1CCCCN(C(=O)c2cc3nc(-c4ccc(Cl)cc4)cc(C(F)(F)F)n3n2)C1 (stereo not shown) [Compound P-611, reference compound]
IC50 [1, 6]: 0.11 µM
IC50 [2, 7]: 1.25 µM

CC(C)c1cc(C2CCOCC2)nn2cc(C(=O)N3CCN(C(=O)C4(O)CCC4)CC3(C)C)nc12 [Compound I-590]
IC50 ([1]; Table 6, 8 μM SLIGKV): 20 µM
IC50 [2, 5]: > 50 µM

CC(C)c1cc(-c2ccc(F)cc2)nn2cc(C(=O)N3CCNC(=O)C3)nc12 [Compound I-591]
IC50 ([1]; Table 6, 8 μM SLIGKV): 17 µM
IC50 [2, 5]: 41 µM

N#Cc1cccnc1N1CCN(C(=O)c2cn3nc(-c4ccc(F)cc4)cc(C(F)(F)F)c3n2)CC1 [Compound I-582]
IC50 ([1]; Table 6, 8 μM SLIGKV): 50 µM
IC50 [2, 5]: > 50 µM

O=C(O)C1CCCCN(C(=O)c2cc3nc(-c4ccc(F)cc4)cc(C(F)(F)F)n3n2)C1 (stereo not shown) [Compound P-610, reference compound]
IC50 [1, 6]: 0.48 µM
Trypsin % @ 50 μM ([2]; Table 8): 63% @ 50 μM

CC(C)c1cc(Cl)nn2cc(C(=O)N3CCN(C(=O)C4(O)CCOCC4)CC3(C)C)nc12 [Compound I-588]
IC50 ([1]; Table 6, 8 μM SLIGKV): 37 µM
IC50 [2, 5]: > 50 µM

CCC(=O)N1CCN(C(=O)c2cn3nc(-c4ccc(F)cc4)cc(C(F)(F)F)c3n2)CC1 [Compound I-584]
IC50 ([1]; Table 6, 8 μM SLIGKV): 22 µM
IC50 [2, 5]: 2 µM

O=C(c1cc2nc(-c3ccccc3)cc(C(F)(F)F)n2n1)N1CCCCCC1 [Compound P-601, reference compound]
IC50 [1, 6]: 0.061 µM
IC50 [2, 7]: 0.88 µM

CC(C)(C)c1cc(-c2ccc(F)cc2)nn2cc(C(=O)N3CCC(O)CC3(C)C)nc12 (stereo not shown) [Compound I-484, (8-(tert-butyl)-6-(4-fluorophenyl)imidazo[1,2-b]pyridazin-2-yl)(4-hydroxy-2,2-dimethylpiperidin-1-yl)methanone]
IC50 [1, 8]: 0.0028 µM
IC50 [2, 9]: 0.0096 µM
IC50 ([3]; Homo sapiens, antagonist mode): > 1 µM

Cc1cc(-c2ccc(F)cc2)nn2cc(C(=O)N3CCCC4(COC4)C3)nc12 [Compound I-586]
IC50 ([1]; Table 6, 8 μM SLIGKV): 13 µM
IC50 [2, 5]: 19 µM

O=C(O)C1CCCN(C(=O)c2cc3nc(-c4ccc(Cl)cc4)cc(C(F)(F)F)n3n2)C1 (stereo not shown) [Compound P-600, reference compound]
IC50 [1, 6]: 37 µM
IC50 [2, 7]: > 50 µM
